Assay [1] concerns the target T1, human mAChR M1 (Homo sapiens, UniProt P11229).
T1 sequence (P11229 1-460): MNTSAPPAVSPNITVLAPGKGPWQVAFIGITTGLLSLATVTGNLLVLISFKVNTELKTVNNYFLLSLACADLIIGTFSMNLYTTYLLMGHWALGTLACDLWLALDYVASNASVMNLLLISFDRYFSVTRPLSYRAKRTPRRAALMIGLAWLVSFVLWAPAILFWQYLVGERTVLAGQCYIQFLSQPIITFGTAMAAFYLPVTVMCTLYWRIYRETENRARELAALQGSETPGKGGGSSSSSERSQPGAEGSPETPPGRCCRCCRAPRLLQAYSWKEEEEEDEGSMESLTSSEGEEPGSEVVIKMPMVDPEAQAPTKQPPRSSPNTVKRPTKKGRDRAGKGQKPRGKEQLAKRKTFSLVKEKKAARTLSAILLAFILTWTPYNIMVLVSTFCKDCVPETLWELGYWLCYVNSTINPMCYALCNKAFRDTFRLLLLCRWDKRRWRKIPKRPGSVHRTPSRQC
The assay can be described thus: mAChR M1 cell-based functional assay (calcium mobilization), agonist activity upon compound addition alone. To be noted: CHO-K1 cells expressing hM1; for EC50: calcium mobilization upon compound addition, no acetylcholine; for Emax: compound alone, relative to the maximum for acetylcholine. An outline of the steps:
(§1)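 Calcium mobilization in CHO-K1 cells stably expressing hM1, Fluo-4 loaded; 11-point 1:3 compound series added at 4 s, acetylcholine EC20 at 144 s, kinetic fluorescence ratio at 1 Hz. Agonism: rise on compound alone, Emax relative to acetylcholine maximum; PAM: potentiation of EC20 response; four-parameter logistic fits.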
A general note: Calcium flux is commonly read through the fluorescence of an indicator in the cells.

For assay [2], the target named is T1, human mAChR M1. Briefly: mAChR M1 cell-based functional assay (calcium mobilization), PAM activity: increase in the EC20 acetylcholine response. To be noted: CHO-K1 cells expressing hM1; calcium flux (Fluo-4); potentiation of EC20 acetylcholine response. In short, it runs like this: as §1

The values below come from patent publication US11851406B2, “Positive allosteric modulators of the muscarinic acetylcholine receptor M1” (Vanderbilt University, priority 2018, dated 2023).

One may read the EC50 as the concentration needed to bring the measured effect to its halfway point. As a reminder, the Emax is the size of the effect at its maximum, as opposed to the concentration needed.

On to `Cn1cc(-c2ccc(Cc3cc(C(=O)NC4CCOCC4)nc(-c4ccn(C)n4)c3)cn2)cn1` [Compound 4, 6-(1-methyl-1H-pyrazol-3-yl)-4-((6-(1-methyl-1H-pyrazol-4-yl)pyridin-3-yl)methyl)-N-(tetrahydro-2H-pyran-4-yl)picolinamide], for which, in assay [1], the EC50 was above 10 µM and the maximum response (Emax) is below 5%. Moreover, in assay [2], the maximal response (Emax) was 53%.
Consider `Cn1cc(-c2ccc(Cc3cc(C(=O)NC[C@@H]4CCCO4)nc(-c4ccn(C)n4)c3)cn2)cn1` [Compound 7, (S)-6-(1-methyl-1H-pyrazol-3-yl)-4-((6-(1-methyl-1H-pyrazol-4-yl)pyridin-3-yl)methyl)-N-((tetrahydrofuran-2-yl)methyl)picolinamide], for which, in assay [1], the EC50 was above 10 µM and the Emax was below 5%. The Emax in assay [2] is 38%.
In the case of `Cc1c(Cc2ccc(-c3ccn(C)n3)cc2)cc(C(=O)N[C@H]2CCCC[C@@H]2O)nc1-n1cccn1` [Compound 41, N-((1S,2S)-2-hydroxycyclohexyl)-5-methyl-4-(4-(1-methyl-1H-pyrazol-3-yl)benzyl)-6-(1H-pyrazol-1-yl)picolinamide], in assay [1], the EC50 was found to be 7.78 µM and the Emax was determined as 26%. In assay [2], the EC50 came to 0.307 µM and the Emax stood at 79%.
With `Cn1ccc(-c2ccc(Cc3cc(C(=O)NC4CC5(COC5)C4)nc(-n4cccn4)c3)cc2)n1` [Compound 31, 4-(4-(1-methyl-1H-pyrazol-3-yl)benzyl)-6-(1H-pyrazol-1-yl)-N-(2-oxaspiro[3.3]heptan-6-yl)picolinamide], in assay [1], the EC50 was above 10 µM and the Emax is below 5%. Besides, the Emax in assay [2] is 56%.
Consider `Cc1c(Cc2ccc(-c3ccn(C)n3)cc2)cc(C(=O)N[C@H]2CCC[C@@H]2O)nc1-n1cccn1` [Compound 43, N-((1S,2S)-2-hydroxycyclopentyl)-5-methyl-4-(4-(1-methyl-1H-pyrazol-3-yl)benzyl)-6-(1H-pyrazol-1-yl)picolinamide], for which, in assay [1], the EC50 was at least 10 µM and the Emax was determined as 14%. In addition, in assay [2], the EC50 turned out to be 1.3 µM and the Emax was 85%.
For `Cc1nc(-c2ccc(Cc3cc(C(=O)N[C@H]4CCCC[C@@H]4O)nc(-n4cccn4)c3C)cc2)co1` [Compound 48, N-((1S,2S)-2-hydroxycyclohexyl)-5-methyl-4-(4-(2-methyloxazol-4-yl)benzyl)-6-(1H-pyrazol-1-yl)picolinamide], in assay [1], the EC50 is 8.59 µM and the maximal effect (Emax) worked out at 10%. For the same molecule, in assay [2], the EC50 was found to be 0.832 µM and the Emax turned out to be 59%.
As for `Cc1c(Cc2ccc(-n3cccn3)cc2)cc(C(=O)N[C@H]2CC[C@@H]2O)nc1-c1ccn(C)n1` [Compound 60, 4-(4-(1H-pyrazol-1-yl)benzyl)-N-((1S,2S)-2-hydroxycyclobutyl)-5-methyl-6-(1-methyl-1H-pyrazol-3-yl)picolinamide], in assay [1], the EC50 is above 10 µM and the Emax was below 5%. The Emax in assay [2] is 79%.
Consider `Cn1ccc(-c2ccc(Cc3cc(C(=O)NC4CCOCC4)nc(-c4ccn(C)n4)c3)cc2)n1` [Compound 35, 6-(1-methyl-1H-pyrazol-3-yl)-4-(4-(1-methyl-1H-pyrazol-3-yl)benzyl)-N-(tetrahydro-2H-pyran-4-yl)picolinamide], for which, in assay [1], the EC50 was above 10 µM and the Emax is below 5%. The Emax in assay [2] was determined as 46%.
In the case of `Cn1cc(-c2ccc(Cc3cc(C(=O)NC4CCOCC4)nc(-n4cccn4)c3)cn2)cn1` [Compound 26, 4-((6-(1-methyl-1H-pyrazol-4-yl)pyridin-3-yl)methyl)-6-(1H-pyrazol-1-yl)-N-(tetrahydro-2H-pyran-4-yl)picolinamide], in assay [1], the EC50 is above 10 µM and the maximal response (Emax) turned out to be 5%. Besides, the Emax in assay [2] turned out to be 47%.
With `Cc1c(Cc2ccc(-n3cccn3)cc2)cc(C(=O)N[C@H]2CCCC[C@@H]2O)nc1-c1ccn(C)n1` [Compound 56, 4-(4-(1H-pyrazol-1-yl)benzyl)-N-((1S,2S)-2-hydroxycyclohexyl)-5-methyl-6-(1-methyl-1H-pyrazol-3-yl)picolinamide], in assay [1], the EC50 was above 10 µM and the Emax is below 5%. For the same molecule, in assay [2], the 50% effective concentration (EC50) came to 0.906 µM and the Emax came out at 81%.
The corresponding values for `Cn1ccc(-c2ccc(Cc3cc(C(=O)N[C@H]4CCOC[C@@H]4O)nc(-c4ccn(C)n4)c3)cc2)n1` [Compound 37, N-((3R,4S)-3-hydroxytetrahydro-2H-pyran-4-yl)-6-(1-methyl-1H-pyrazol-3-yl)-4-(4-(1-methyl-1H-pyrazol-3-yl)benzyl)picolinamide] are above 10 µM, below 5%, 1.56 µM and 76%.
Take `Cc1c(Cc2ccc(-n3cccn3)cc2)cc(C(=O)NC2CCOCC2)nc1-c1ccn(C)n1` [Compound 57, 4-(4-(1H-pyrazol-1-yl)benzyl)-5-methyl-6-(1-methyl-1H-pyrazol-3-yl)-N-(tetrahydro-2H-pyran-4-yl)picolinamide]: the EC50 in assay [1] is above 10 µM; in assay [2] it was 5.7 µM. The Emax is below 5% in assay [1] and 81% in assay [2].
Consider `Cc1ccc(Cc2cc(C(=O)N[C@H]3CCOC[C@@H]3O)nc(-c3ccn(C)n3)c2C)cn1` [Compound 65, N-((3R,4S)-3-hydroxytetrahydro-2H-pyran-4-yl)-5-methyl-6-(1-methyl-1H-pyrazol-3-yl)-4-((6-methylpyridin-3-yl)methyl)picolinamide], for which, in assay [1], the EC50 is above 10 µM and the maximal response (Emax) was below 5%. Also, in assay [2], the maximal effect (Emax) was found to be 71%.
The matching figures for `Cc1c(Cc2ccc(-c3cnn(C)c3)nc2)cc(C(=O)NC2CCOCC2)nc1-n1cccn1` [Compound 50, 5-methyl-4-((6-(1-methyl-1H-pyrazol-4-yl)pyridin-3-yl)methyl)-6-(1H-pyrazol-1-yl)-N-(tetrahydro-2H-pyran-4-yl)picolinamide]: above 10 µM, below 5% and 65%.
For `Cc1c(Cc2ccc(-n3cccn3)cc2)cc(C(=O)NC2CC3(COC3)C2)nc1-c1ccn(C)n1` [Compound 58, 4-(4-(1H-pyrazol-1-yl)benzyl)-5-methyl-6-(1-methyl-1H-pyrazol-3-yl)-N-(2-oxaspiro[3.3]heptan-6-yl)picolinamide], in assay [1], the EC50 was above 10 µM and the Emax is below 5%. In addition, in assay [2], the EC50 stood at 6 µM and the Emax is 83%.
The corresponding values for `Cc1c(Cc2ccc(-n3cccn3)cc2)cc(C(=O)N[C@H]2CCOC[C@@H]2O)nc1-c1ccn(C)n1` [Compound 55, 4-(4-(1H-pyrazol-1-yl)benzyl)-N-((3R,4S)-3-hydroxytetrahydro-2H-pyran-4-yl)-5-methyl-6-(1-methyl-1H-pyrazol-3-yl)picolinamide] are 6.7 µM, 22%, 0.324 µM and 77%.
Turning to `Cn1cc(-c2ccc(Cc3cc(C(=O)NC4CC5(COC5)C4)nc(-c4ccn(C)n4)c3)cn2)cn1` [Compound 5, 6-(1-methyl-1H-pyrazol-3-yl)-4-((6-(1-methyl-1H-pyrazol-4-yl)pyridin-3-yl)methyl)-N-(2-oxaspiro[3.3]heptan-6-yl)picolinamide], the concentration giving a half-maximal response (EC50) in assay [1] was above 10 µM. Besides, the figures for the Emax in assay [1] and in assay [2] were below 5% and 52%, respectively.
As for `Cc1c(Cc2ccc(-c3ccn(C)n3)cc2)cc(C(=O)N[C@H]2CCOC[C@@H]2O)nc1-n1cccn1` [Compound 2, N-((3R,4S)-3-hydroxytetrahydro-2H-pyran-4-yl)-5-methyl-4-(4-(1-methyl-1H-pyrazol-3-yl)benzyl)-6-(1H-pyrazol-1-yl)picolinamide], in assay [1], the half-maximal effective concentration (EC50) stood at 7.15 µM and the Emax worked out at 25%. Moreover, in assay [2], the half-maximal effective concentration (EC50) stood at 0.317 µM and the maximal response (Emax) amounted to 78%.
The corresponding values for `Cn1ccc(-c2ccc(Cc3cc(C(=O)N[C@H]4CCC[C@@H]4O)nc(-n4cccn4)c3)cc2)n1` [Compound 33, N-((1S,2S)-2-hydroxycyclopentyl)-4-(4-(1-methyl-1H-pyrazol-3-yl)benzyl)-6-(1H-pyrazol-1-yl)picolinamide] are above 10 µM, below 5%, 5.51 µM and 69%.
The matching figures for `Cc1c(Cc2ccc(-c3ccn(C)n3)nc2)cc(C(=O)N[C@H]2CCCC[C@@H]2O)nc1-n1cccn1` [Compound 46, N-((1S,2S)-2-hydroxycyclohexyl)-5-methyl-4-((6-(1-methyl-1H-pyrazol-3-yl)pyridin-3-yl)methyl)-6-(1H-pyrazol-1-yl)picolinamide]: at least 10 µM, 28%, 0.881 µM and 85%.
For `Cc1nc(-c2ccc(Cc3cc(C(=O)N[C@H]4CCOC[C@@H]4O)nc(-n4cccn4)c3C)cc2)co1` [Compound 45, N-((3R,4S)-3-hydroxytetrahydro-2H-pyran-4-yl)-5-methyl-4-(4-(2-methyloxazol-4-yl)benzyl)-6-(1H-pyrazol-1-yl)picolinamide], the EC50 in assay [1] was above 10 µM; in assay [2] it was 0.863 µM. Further, the Emax in assay [1] was 8%; in assay [2] it was 47%.
